# Laboratory results taken from patent US20260217761A1, “ANTIMICROBIAL PEPTIDE RICH IN TRYPTOPHAN AND HAVING SELF-ASSEMBLY PROPERTIES, AND USE THEREOF” (NANOQURE BIOTECH (SHENZHEN) CO., LTD., priority 2022, published 2026).
# Non-standard residues stand in square brackets, D forms with d. Residues, ends and D or L forms follow the SMILES beside them.
# What was measured:
# various bacteria = assay: MIC against various bacteria (broad-spectrum antimicrobial activity); type: cell-based
# Protocol: • A. The antimicrobial peptide was prepared into a certain stock solution for use. 0.01% acetic acid (containing 0.2% BSA) was used as the diluent, and a series of gradient antimicrobial peptide solutions were prepared sequentially by a two-fold dilution method. • B. 100 μL of the above-mentioned antimicrobial peptide stock solution was taken and placed in a 96-well cell culture plate. Then, an equal volume of the test bacterial solution (approximately 10^5 cells/mL) was added to each well. A positive control (containing the bacterial solution but no antimicrobial peptide) and a negative control (containing neither bacterial solution nor the peptide) were included, respectively. The test bacterial species include Pseudomonas aeruginosa (Pseudomonas aeruginosa PL1, Pseudomonas aeruginosa SP1), Staphylococcus aureus (Staphylococcus aureus 544, Staphylococcus aureus 103), Escherichia coli (Escherichia coli 729, Escherichia coli 112), Klebsiella Pneumoniae (Klebsiella Pneumoniae 106, Klebsiella Pneumoniae 727), Streptococcus pneumonia 383, Acinetobacter baumannii (Acinetobacter baumannii 946, Acinetobacter baumannii 780) (FIG. 1), or Pseudomonas aeruginosa (Pseudomonas aeruginosa PAO1), Staphylococcus aureus (Staphylococcus aureus SP1), and a mixed solution of the above two bacteria (FIG. 2). • C. The culture plate was placed in a constant temperature incubator at 37° C. for 20 h. The minimum inhibitory concentration is determined as the condition where no turbidity is observed at the bottom of the well with naked eyes.
# • A. The polypeptide Z4 composed entirely of dextrorotatory amino acids is called the dextrorotatory isomer of polypeptide Z4. The polypeptide Z4-D was prepared into a certain stock solution for use. […] The minimum inhibitory concentration is determined as the condition where no turbidity is observed at the bottom of the well with naked eyes.
# P. aeruginosa PL1 = type: cell-based, Pseudomonas aeruginosa
# Protocol: (§1) • A. The polypeptide Z4 composed entirely of dextrorotatory amino acids is called the dextrorotatory isomer of polypeptide Z4. The polypeptide Z4-D was prepared into a certain stock solution for use. 0.01% acetic acid (containing 0.2% BSA) was used as the diluent, and a series of gradient antimicrobial peptide solutions were prepared in sequence by a two-fold dilution method. • B. 100 μL of the above-mentioned antimicrobial peptide stock solution was taken and placed in a 96-well cell culture plate. Then, an equal volume of the test bacterial solution (approximately […]) was added to each well. A positive control (containing the bacterial solution but no antimicrobial peptide) and a negative control (containing neither the bacterial solution nor the peptide) were included, respectively. The test bacterial species include Pseudomonas aeruginosa (Pseudomonas aeruginosa PL1, Pseudomonas aeruginosa SP1), Staphylococcus aureus (Staphylococcus aureus 544, Staphylococcus aureus 103), Escherichia coli (Escherichia coli 729, Escherichia coli 112), Klebsiella Pneumoniae (Klebsiella Pneumoniae 106, Klebsiella Pneumoniae 727), Streptococcus pneumonia 383, and Acinetobacter baumannii (Acinetobacter baumannii 946, Acinetobacter baumannii 780). • C. […] The minimum inhibitory concentration is determined as the condition where no turbidity is observed at the bottom of the well with naked eyes.
# P. aeruginosa SP1 = type: cell-based, Pseudomonas aeruginosa
# Protocol: as §1
# S. aureus 103 = type: cell-based, Staphylococcus aureus
# Protocol: as §1
# S. aureus 544 = type: cell-based, Staphylococcus aureus
# Protocol: as §1
# E. coli 112 = type: cell-based, Escherichia coli
# Protocol: as §1
# E. coli 729 = type: cell-based, Escherichia coli
# Protocol: as §1
# K. pneumoniae 106 = type: cell-based, Klebsiella Pneumoniae
# Protocol: as §1
# K. pneumoniae 727 = type: cell-based, Klebsiella Pneumoniae
# Protocol: as §1
# S. pneumoniae 383 = type: cell-based, Streptococcus pneumonia
# Protocol: as §1
# A. baumannii 780 = type: cell-based, Acinetobacter baumannii
# Protocol: as §1
# A. baumannii 946 = type: cell-based, Acinetobacter baumannii
# Protocol: as §1
# [1] = test system: mixed bacterial solution of P. aeruginosa PAO1 and S. aureus SP1; type: cell-based; conditions: within 0-120 minutes of proteinase K treatment, remained unchanged
# Protocol: After ultrasonic treatment of polypeptide Z4 and polypeptide Z4-D for 30 min, they were placed at room temperature for 2 h to promote their self-assembly. Subsequently, proteinase K with a final concentration of 0.2 g/mL was mixed with the polypeptide solution (final concentration of 640 μM) and incubated at 37° C. for 0, 30, 60, 90 or 120 min respectively. Then, according to the scheme described in Example 2, the MICs of the polypeptides against the mixed bacterial solution of P. aeruginosa PAO1 and S. aureus SP1 under different treatment conditions were determined.
compound,measurement,setting,value
NCCCC[C@@H](NC(=O)[C@@H](Cc1c[nH]c2ccccc12)NC(=O)[C@H](N)Cc1c[nH]c2ccccc12)C(=O)N[C@H](CCCCN)C(=O)N[C@H](Cc1c[nH]c2ccccc12)C(=O)N[C@H](CCCCN)C(=O)N[C@H](CCCCN)C(=O)N[C@H](Cc1c[nH]c2ccccc12)C(=O)N[C@H](Cc1c[nH]c2ccccc12)C(N)=O [Z4-D] (H-[dW][dW][dK][dK][dW][dK][dK][dW][dW]-NH2; N-terminus assumed),broad-spectrum antimicrobial activity,various bacteria,good broad-spectrum antimicrobial activity
same,MIC,P. aeruginosa PL1,16 µM
same,MIC,P. aeruginosa SP1,4 µM
same,MIC,S. aureus 103,4 µM
same,MIC,S. aureus 544,4 µM
same,MIC,E. coli 112,4 µM
same,MIC,E. coli 729,4 µM
same,MIC,K. pneumoniae 106,128 µM
same,MIC,K. pneumoniae 727,32 µM
same,MIC,S. pneumoniae 383,4 µM
same,MIC,A. baumannii 780,16 µM
same,MIC,A. baumannii 946,4 µM
same,MIC after proteinase K treatment,[1],4 µM
